Experimental data: ChEMBL document CHEMBL4308923, “Identification of Human Toll-like Receptor 2-Agonistic Activity in Dihydropyridine-Quinolone Carboxamides” (ACS Med Chem Lett, 2019)
The source made the active and inactive calls. No cut-off for these calls is given here.

How the values were obtained:
Type in all cases: cell-based
Toll-like receptor 2 [1] = biological target: T1, Toll-like receptor 2 (Homo sapiens, UniProt O60603); assay: Agonist activity at human TLR2 expressed in HEK-Blue cells harboring NFkB promoter-driven secreted alkaline phosphatase assessed as induction of NFkB after 12 hrs by spectrophotometric assay
Toll-like receptor 2 [2] = biological target: T1, Toll-like receptor 2; assay: Agonist activity at human TLR2 expressed in HEK cells assessed as induction of MCP1 by ELISA
Toll-like receptor 2 [3] = biological target: T1, Toll-like receptor 2; assay: Agonist activity at human TLR2 expressed in HEK cells assessed as induction of MIP1alpha level
Toll-like receptor 2 [4] = biological target: T1, Toll-like receptor 2; assay: Agonist activity at human TLR2 expressed in HEK cells assessed as induction of MIP1beta level
Toll-like receptor 2 [5] = biological target: T1, Toll-like receptor 2; assay: Agonist activity at human TLR2 expressed in human THP1-Blue cells harboring NFkB promoter-driven secreted alkaline phosphatase assessed as induction of NFkB after 12 hrs co-treated with PAM2CSK4 by spectrophotometric assay

T1 sequence (O60603 whole entry): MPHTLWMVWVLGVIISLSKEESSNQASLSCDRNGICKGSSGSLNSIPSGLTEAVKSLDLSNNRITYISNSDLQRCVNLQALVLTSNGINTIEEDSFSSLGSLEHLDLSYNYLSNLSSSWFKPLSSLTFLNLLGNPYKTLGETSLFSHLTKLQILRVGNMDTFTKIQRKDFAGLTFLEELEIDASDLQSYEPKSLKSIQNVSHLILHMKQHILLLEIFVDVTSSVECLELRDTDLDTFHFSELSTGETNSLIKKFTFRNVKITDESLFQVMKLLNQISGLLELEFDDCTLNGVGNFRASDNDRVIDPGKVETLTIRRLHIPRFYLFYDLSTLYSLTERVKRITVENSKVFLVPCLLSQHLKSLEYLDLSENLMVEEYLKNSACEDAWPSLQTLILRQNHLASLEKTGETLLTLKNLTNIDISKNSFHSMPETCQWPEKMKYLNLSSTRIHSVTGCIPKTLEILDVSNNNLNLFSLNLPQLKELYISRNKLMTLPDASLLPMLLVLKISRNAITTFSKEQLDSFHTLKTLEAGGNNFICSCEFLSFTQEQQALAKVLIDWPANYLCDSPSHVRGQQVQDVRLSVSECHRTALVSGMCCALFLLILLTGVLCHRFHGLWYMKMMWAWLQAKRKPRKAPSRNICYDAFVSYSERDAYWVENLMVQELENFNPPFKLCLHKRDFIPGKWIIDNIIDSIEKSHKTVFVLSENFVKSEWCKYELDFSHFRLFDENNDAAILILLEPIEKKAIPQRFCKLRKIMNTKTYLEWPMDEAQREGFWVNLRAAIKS

Structure (SMILES)	Activity (Toll-like receptor 2 [1])	further results
CC1CCc2cc(F)cc3c(O)c(C(=O)NCc4ccnc5[nH]ccc45)c(=O)n1c23 (configuration not stated)	inactive	–
CC1CCc2cc(F)cc3c(O)c(C(=O)NCc4cccnn4)c(=O)n1c23 (configuration not stated)	inactive	–
Cc1ccncc1CNC(=O)c1c(O)c2cc(F)cc3c2n(c1=O)C(C)CC3 (configuration not stated)	–	EC50 (Toll-like receptor 2 [1]): 1450 nM
CC1CCc2cc(F)cc3c(O)c(C(=O)NCc4ccc5c(c4)OCCO5)c(=O)n1c23 (configuration not stated)	inactive	–
CC1CCc2cc(F)cc3c(O)c(C(=O)NCc4nc5ccccc5[nH]4)c(=O)n1c23 (configuration not stated)	inactive	–
Cc1nn(C)cc1CNC(=O)c1c(O)c2cc(F)cc3c2n(c1=O)C(C)CC3 (configuration not stated)	inactive	–
C[C@H]1CCc2cc(F)cc3c(O)c(C(=O)NCc4cncc(F)c4)c(=O)n1c23	Active	Activity (Toll-like receptor 2 [2]): Active; Activity (Toll-like receptor 2 [3]): Active; Activity (Toll-like receptor 2 [4]): Active; Activity (Toll-like receptor 2 [5]): Active
CC1CCc2cc(F)cc3c(O)c(C(=O)NCc4cc5ccccc5[nH]4)c(=O)n1c23 (configuration not stated)	inactive	–
CC1CCc2cc(F)cc3c(O)c(C(=O)NCc4ccnn4C)c(=O)n1c23 (configuration not stated)	inactive	–
CC1CCc2cc(F)cc3c(O)c(C(=O)NCc4nccn4C)c(=O)n1c23 (configuration not stated)	inactive	–
CC1CCc2cc(F)cc3c(O)c(C(=O)NCc4ccsc4)c(=O)n1c23 (configuration not stated)	inactive	–
CC1CCc2cc(F)cc3c(O)c(C(=O)NCc4ccccn4)c(=O)n1c23 (configuration not stated)	inactive	–
CC1CCc2cc(F)cc3c(O)c(C(=O)NCc4ccc(N)nc4)c(=O)n1c23 (configuration not stated)	–	EC50 (Toll-like receptor 2 [1]): 320 nM; EC50 (Toll-like receptor 2 [2]): 7.56 µM
CC1CCc2cc(F)cc3c(O)c(C(=O)NCc4cccs4)c(=O)n1c23 (configuration not stated)	inactive	–
CC1CCc2cc(F)cc3c(O)c(C(=O)NCc4cncnc4)c(=O)n1c23 (configuration not stated)	inactive	–
CC1CCc2cc(F)cc3c(O)c(C(=O)NCC4CNCCO4)c(=O)n1c23 (configuration not stated)	inactive	–
Cc1cc(CNC(=O)c2c(O)c3cc(F)cc4c3n(c2=O)C(C)CC4)no1 (configuration not stated)	inactive	–
CC1CCc2cc(F)cc3c(O)c(C(=O)NCc4n[nH]c5ccccc45)c(=O)n1c23 (configuration not stated)	inactive	–

Structure (SMILES)	Activity (Toll-like receptor 2 [1])	further results
Cc1nnc(CNC(=O)c2c(O)c3cc(F)cc4c3n(c2=O)C(C)CC4)o1 (configuration not stated)	inactive	–
CC1CCc2cc(F)cc3c(O)c(C(=O)NCCc4cccnc4)c(=O)n1c23 (configuration not stated)	–	EC50 (Toll-like receptor 2 [1]): 1350 nM; EC50 (Toll-like receptor 2 [2]): 1.86 µM
CC1CCc2cc(F)cc3c(O)c(C(=O)NCCn4ccnc4)c(=O)n1c23 (configuration not stated)	inactive	–
CC1CCc2cc(F)cc3c(O)c(C(=O)NCc4cccnc4)c(=O)n1c23 (configuration not stated)	–	EC50 (Toll-like receptor 2 [1]): 300 nM; EC50 (Toll-like receptor 2 [2]): 1.35 µM
CC1CCc2cc(F)cc3c(O)c(C(=O)NCc4cccc5ncccc45)c(=O)n1c23 (configuration not stated)	inactive	–
CC1CCc2cc(F)cc3c(O)c(C(=O)NC4CCc5ncccc54)c(=O)n1c23 (configuration not stated)	–	EC50 (Toll-like receptor 2 [1]): 3000 nM
CC1CCc2cc(F)cc3c(O)c(C(=O)NCc4cncc(F)c4)c(=O)n1c23 (configuration not stated)	–	EC50 (Toll-like receptor 2 [1]): 1000 nM; EC50 (Toll-like receptor 2 [2]): 4.52 µM
C[C@@H]1CCc2cc(F)cc3c(O)c(C(=O)NCc4ccc(N)nc4)c(=O)n1c23	Active	–
COc1cc(CNC(=O)c2c(O)c3cc(F)cc4c3n(c2=O)C(C)CC4)ccn1 (configuration not stated)	inactive	–
CC1CCc2cc(F)cc3c(O)c(C(=O)NCc4ccc(N(C)C)nc4)c(=O)n1c23 (configuration not stated)	inactive	–
CC1CCc2cc(F)cc3c(O)c(C(=O)NCc4cnc5ccccc5c4)c(=O)n1c23 (configuration not stated)	inactive	–
CC1CCc2cc(F)cc3c(O)c(C(=O)NCc4ccno4)c(=O)n1c23 (configuration not stated)	inactive	–
CC1CCc2cc(F)cc3c(O)c(C(=O)NCC4CCNCC4)c(=O)n1c23 (configuration not stated)	inactive	–
CC1CCc2cc(F)cc3c(O)c(C(=O)NCc4cccc(C(N)=O)c4)c(=O)n1c23 (configuration not stated)	inactive	–
CC1CCc2cc(F)cc3c(O)c(C(=O)NCc4cccnc4N(C)C)c(=O)n1c23 (configuration not stated)	–	EC50 (Toll-like receptor 2 [1]): 3200 nM; EC50 (Toll-like receptor 2 [2]): 3.09 µM
C[C@H]1CCc2cc(F)cc3c(O)c(C(=O)NCc4ccc(N)nc4)c(=O)n1c23	Active	Activity (Toll-like receptor 2 [2]): Active; Activity (Toll-like receptor 2 [3]): Active; Activity (Toll-like receptor 2 [4]): Active; Activity (Toll-like receptor 2 [5]): Active
CC1CCc2cc(F)cc3c(O)c(C(=O)NCc4ccc5c(c4)OCO5)c(=O)n1c23 (configuration not stated)	inactive	–
CC1CCc2cc(F)cc3c(O)c(C(=O)NCc4ccc(Cl)nc4)c(=O)n1c23 (configuration not stated)	–	EC50 (Toll-like receptor 2 [1]): 5000 nM

More lines, main results first:

Activity (Toll-like receptor 2 [1])	Structure (SMILES)	further results
inactive	CC1CCc2cc(F)cc3c(O)c(C(=O)NCC4CCOC4)c(=O)n1c23 (configuration not stated)	–
inactive	CC1CCc2cc(F)cc3c(O)c(C(=O)NCc4cccc5cc[nH]c45)c(=O)n1c23 (configuration not stated)	–
Active	C[C@H]1CCc2cc(F)ccc2N1	–
inactive	CC1CCc2cc(F)cc3c(O)c(C(=O)NCc4ccc5[nH]ccc5c4)c(=O)n1c23 (configuration not stated)	–
inactive	CC1CCc2cc(F)cc3c(O)c(C(=O)NCc4cnn(C)c4)c(=O)n1c23 (configuration not stated)	–
Active	C[C@H]1CCc2cc(F)cc3c(O)c(C(=O)NCc4cccnc4)c(=O)n1c23	Activity (Toll-like receptor 2 [2]): Active; Activity (Toll-like receptor 2 [3]): Active; Activity (Toll-like receptor 2 [4]): Active; Activity (Toll-like receptor 2 [5]): Active
inactive	CC1CCc2cc(F)cc3c(O)c(C(=O)NCC4CCCNC4)c(=O)n1c23 (configuration not stated)	–
Active	C[C@@H]1CCc2cc(F)ccc2N1	–
Active	C[C@@H]1CCc2cc(F)cc3c(O)c(C(=O)NCc4cccnc4)c(=O)n1c23	–
inactive	CC1CCc2cc(F)cc3c(O)c(C(=O)NCC4CCCN(C)C4)c(=O)n1c23 (configuration not stated)	–
inactive	CC1CCc2cc(F)cc3c(O)c(C(=O)NCC4CCCCN4)c(=O)n1c23 (configuration not stated)	–
Active	Cc1ccc(S(=O)(=O)N2CCC[C@H]2C(=O)N2c3ccc(F)cc3CC[C@H]2C)cc1	–
inactive	CC1CCc2cc(F)cc3c(O)c(C(=O)NCc4ccnnc4)c(=O)n1c23 (configuration not stated)	–
inactive	CC1CCc2cc(F)cc3c(O)c(C(=O)Nc4cccnc4)c(=O)n1c23 (configuration not stated)	–
Active	Cc1ccc(S(=O)(=O)N2CCC[C@H]2C(=O)N2c3ccc(F)cc3CC[C@@H]2C)cc1	–
inactive	CC1CCc2cc(F)cc3c(O)c(C(=O)NCc4nc5ccccc5n4C)c(=O)n1c23 (configuration not stated)	–
inactive	CC1CCc2cc(F)cc3c(O)c(C(=O)NCc4ccncc4)c(=O)n1c23 (configuration not stated)	–
inactive	CC1CCc2cc(F)cc3c(O)c(C(=O)NCC4CCN(C)C4)c(=O)n1c23 (configuration not stated)	–
inactive	CC1CCc2cc(F)cc3c(O)c(C(=O)NCc4cccc5[nH]ccc45)c(=O)n1c23 (configuration not stated)	–
